Patent US11912723B2, “KRAS modulators and uses thereof” (Quanta Therapeutics, Inc., priority 2022, dated 2024)

Key:
[1] = test system: AGS (KRAS G12D) cells, phospho-ERK; experiment: pERK In Cell Western (ICW) assay (Method B); type: cell-based; conditions: Homo sapiens, 3 hours
Description: pERK ICW is a high throughput screening assay to evaluate the cellular potency of mutant KRAS small molecule inhibitors. KRAS mutant cell line AGS (KRAS^G12D) were purchased from ATCC and maintained in DMEM and RPMI medium supplemented with 10% fetal bovine serum and Penicillin/Streptomycin.
Cells grown in exponential phase were trypsinized, resuspended in fresh media, and viable cells were counted using a cell counter with Trypan Blue (BioRad TC20). Cells were seeded into 384-well plate (Greiner 781091) at density of 5,000 cells/well for AGS and allowed to grow overnight in a 37° C. CO2 incubator. The next day, compounds were dispensed into wells with a ½ log, 10-point serial dilution and top concentration of 10 μM using Tecan D300e dispenser and incubated for 3 hours in a 37° C. CO2 incubator. Cells were then fixed with paraformaldehyde (Electron Microscopy Sciences, 15710, 4% final concentration) for 30 min, permeabilized with wash buffer (1×PBS+0.1% Triton X-100) for 30 min and blocked with Odyssey blocking buffer (Li—COR 927-70001) for 1 hour, all at room temperature (RT). Phospho-ERK antibody (CST 4370L) was diluted 1:500 in Odyssey blocking+0.2% Tween 20 and incubated with cells overnight at 4° C. The next day, plates were washed 5× with wash buffer, incubated with IRDye 800 CW, Goat anti-Rabbit secondary antibody (Li—COR 926-32211, 1:500) and DRAQ5 (CST 4084L, 1:5,000) diluted in Odyssey blocking+0.2% Tween 20 for 1 hour, washed 5×, and imaged on an Odyssey CLx imaging system.
For data analysis, signal intensities from 800 (phosphor-ERK) and 700 (DRAQ5) channels were extracted, and phospho-ERK signals were normalized to DRAQ5 signals for each well and percent of DMSO control values were computed. Data were then imported into Graphpad Prism to compute half-maximal inhibitory concentrations (IC50) using a 4-parameter variable slope model. Z-factor for each plate was computed from signals derived from wells treated with either DMSO or 5 μM of Trametinib. AGS pERK ICW (Method B) IC50 (uM) values of selected compounds are depicted in Table 2 with compounds having a value 0.001 uM to 0.01 uM as ++++; >0.01 uM to 0.1 uM as +++; >0.1 uM to 1 uM as ++; 1 uM to 10 uM as + and >10 uM as NA.

[2] = target: T1, GST-tagged KRAS G12D (2-169) (Homo sapiens, UniProt P01116, G12D); experiment: Nucleotide exchange assay (NEA), HTRF of SOS-mediated GTP-DY-647P1 binding; type: biochemical; conditions: 5 nM GST-KRAS G12D, 20 nM SOScat, 150 nM GTP; compound 1 h at RT
T1 construct: GST-tagged KRAS^G12D (2-169, Reaction Biology, MSC-11-539); purchased Reaction Biology MSC-11-539 (KRAS G12D); MSC-11-502 (SOS1cat)
Summary of the method: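 After 1 h RT preincubation of compound with KRAS, SOS1cat (20 nM final) and fluorescent GTP analog (150 nM) were added to 5 nM KRAS; HTRF (anti-GST Tb donor) followed at RT for up to 90 min. % inhibition relative to DMSO and no-SOS1 blank, 4-parameter curve fit.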

KRAS G12D/RAF1 = target: T2, KRAS G12D/RAF1 (Homo sapiens, UniProt P01116, G12D); experiment: Protein-protein interaction (PPI) HTRF assay KRAS G12D/RAF1; type: binding; conditions: KRAS G12D/RAF1, GppNHp-loaded KRAS; 30 minutes pre-incubation
T2 construct: KRAS (1-169) proteins were expressed in E. coli at 18° C; His6-MBP (N, cleaved yes); made in house; host or cells: E. coli
Summary of the method: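 IC50 values come from the 665/615 HTRF ratio, scaled between no-compound (0% inhibition) and untagged RAF1 (100%). GppNHp-exchanged, biotinylated RAS (1-169) solution at 16 nM met compound for 30 min at room temperature. Then 16 nM His-tagged RAF1 (52-131) donor solution was added and incubated 1 h.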

Row | Compound | IC50 [1] | IC50 [2] | IC50 (KRAS G12D/RAF1)
1 | Oc1ccc(Cl)c2c1C1(CC2)Cc2nc(OC[C@@]34CCCN3C[C@H](F)C4)nc(N3CCCCCC3)c2CO1 (mixture of isomers) [Compound 9, 4-(azepan-1-yl)-7′-chloro-2-[[rac-(2R,8S)-2-fluoro-1,2,3,5,6,7-hexahydropyrrolizin-8-yl]methoxy]spiro[5,8-dihydropyrano[4,3-d]pyrimidine-7,3′-indane]-4′-ol] | 1 to 10 µM | 1 to 20 µM | –
2 | CN(C)C(=O)c1cc2n(n1)CCCN(c1nc(OC[C@@]34CCCN3C[C@H](F)C4)nc3c1COC1(CCc4ccc(OC(F)F)cc41)C3)C2 (mixture of isomers) [Compound 41, 5-[6′-(difluoromethoxy)-2-[[rac-(2R,8S)-2-fluoro-1,2,3,5,6,7-hexahydropyrrolizin-8-yl]methoxy]spiro[5,8-dihydropyrano[4,3-d]pyrimidine-7,1′-indane]-4-yl]-N,N-dimethyl-4,6,7,8-tetrahydropyrazolo[1,5-a][1,4]diazepine-2-carboxamide] | > 10 µM | 1 to 20 µM | –
3 | CN(C)C(=O)c1cc2n(n1)CCCN(c1nc(OC[C@@]34CCCN3C[C@H](F)C4)nc3c1COC1(CCc4c(OC(F)F)cccc41)C3)C2 (mixture of isomers) [Compound 48, 5-[4′-(difluoromethoxy)-2-[[rac-(2R,8S)-2-fluoro-1,2,3,5,6,7-hexahydropyrrolizin-8-yl]methoxy]spiro[5,8-dihydropyrano[4,3-d]pyrimidine-7,1′-indane]-4-yl]-N,N-dimethyl-4,6,7,8-tetrahydropyrazolo[1,5-a][1,4]diazepine-2-carboxamide] | > 10 µM | 1 to 20 µM | –
4 | CN(C)C(=O)c1cc2n(n1)CCCN(c1nc(OC[C@@]34CCCN3C[C@H](F)C4)nc3c1CN(C)[C@]1(CCCc4ccc(O)cc41)C3)C2 [Compound 39B, 5-[(7R)-2-[[(2R,8S)-2-fluoro-1,2,3,5,6,7-hexahydropyrrolizin-8-yl]methoxy]-7′-hydroxy-6-methyl-spiro[5,8-dihydropyrido[4,3-d]pyrimidine-7,1′-tetralin]-4-yl]-N,N-dimethyl-4,6,7,8-tetrahydropyrazolo[1,5-a][1,4]diazepine-2-carboxamide] | > 10 µM | 1 to 20 µM | –
5 | CN1Cc2c(nc(OC[C@@]34CCCN3C[C@H](F)C4)nc2N2CCC[C@]3(C2)NC(=O)NC3=O)C[C@]12CCc1cccc(F)c12 [Compound 66, (5R)-9-[(7S)-7′-fluoro-2-[[(2R,8S)-2-fluoro-1,2,3,5,6,7-hexahydropyrrolizin-8-yl]methoxy]-6-methyl-spiro[5,8-dihydropyrido[4,3-d]pyrimidine-7,1′-indane]-4-yl]-1,3,9-triazaspiro[4.5]decane-2,4-dione] | > 10 µM | 0.01 to 0.1 µM | –
6 | CN1Cc2c(nc(OC[C@@]34CCCN3C[C@H](F)C4)nc2N2CCC[C@]3(C2)NC(=O)NC3=O)C[C@]12CCc1c(F)ccc(F)c12 [Compound 67, (5R)-9-[(7S)-4′,7′-difluoro-2-[[(2R,8S)-2-fluoro-1,2,3,5,6,7-hexahydropyrrolizin-8-yl]methoxy]-6-methyl-spiro[5,8-dihydropyrido[4,3-d]pyrimidine-7,1′-indane]-4-yl]-1,3,9-triazaspiro[4.5]decane-2,4-dione] | > 10 µM | 0.01 to 0.1 µM | –
7 | CN1Cc2c(nc(OC[C@@]34CCCN3C[C@H](F)C4)nc2N2CCn3cncc3C2)C[C@]12CCCc1ccccc12 [Compound 91, (7S)-4-(6,8-dihydro-5H-imidazo[1,5-a]pyrazin-7-yl)-2-[[(2R,8S)-2-fluoro-1,2,3,5,6,7-hexahydropyrrolizin-8-yl]methoxy]-6-methyl-spiro[5,8-dihydropyrido[4,3-d]pyrimidine-7,1′-tetralin]] | – | 1 to 20 µM | > 100 µM
8 | CN1Cc2c(nc(OC[C@@]34CCCN3C[C@H](F)C4)nc2N2CCCn3nc(-c4cccc(O)n4)cc3C2)C[C@]12CCCc1ccccc12 [Compound 92, 6-[5-[(7S)-2-[[(2R,8S)-2-fluoro-1,2,3,5,6,7-hexahydropyrrolizin-8-yl]methoxy]-6-methyl-spiro[5,8-dihydropyrido[4,3-d]pyrimidine-7,1′-tetralin]-4-yl]-4,6,7,8-tetrahydropyrazolo[1,5-a][1,4]diazepin-2-yl]pyridin-2-ol] | – | 0.1 to 1 µM | > 100 µM
9 | CN1Cc2c(nc(OC[C@@]34CCCN3C[C@H](F)C4)nc2N2CCCn3nc(-c4ccccn4)c(Cl)c3C2)C[C@]12CCCc1ccccc12 [Compound 93, (7S)-4-[3-chloro-2-(2-pyridyl)-4,6,7,8-tetrahydropyrazolo[1,5-a][1,4]diazepin-5-yl]-2-[[(2R,8S)-2-fluoro-1,2,3,5,6,7-hexahydropyrrolizin-8-yl]methoxy]-6-methyl-spiro[5,8-dihydropyrido[4,3-d]pyrimidine-7,1′-tetralin]] | – | < 0.01 µM | 10 to 100 µM
10 | C[C@@H]1Cn2cncc2CN1c1nc(OC[C@@]23CCCN2C[C@H](F)C3)nc2c1CN(C)[C@@]1(CCCc3ccccc31)C2 [Compound 94, (7S)-2-[[(2R,8S)-2-fluoro-1,2,3,5,6,7-hexahydropyrrolizin-8-yl]methoxy]-6-methyl-4-[(6R)-6-methyl-6,8-dihydro-5H-imidazo[1,5-a]pyrazin-7-yl]spiro[5,8-dihydropyrido[4,3-d]pyrimidine-7,1′-tetralin]] | – | 1 to 20 µM | > 100 µM
11 | CN(C)C(=O)c1nn2c(c1Cl)CN(c1nc(OCC3(CN4CCOCC4)CC3)nc3c1CN(C)[C@@]1(CCCc4ccccc41)C3)CCC2 [Compound 95, 3-chloro-N,N-dimethyl-5-[(7S)-6-methyl-2-[[1-(morpholinomethyl)cyclopropyl]methoxy]spiro[5,8-dihydropyrido[4,3-d]pyrimidine-7,1′-tetralin]-4-yl]-4,6,7,8-tetrahydropyrazolo[1,5-a][1,4]diazepine-2-carboxamide] | – | < 0.01 µM | > 100 µM
12 | CN1Cc2c(nc(OC[C@@]34CCCN3C[C@H](F)C4)nc2N2CCCn3nc(CC#N)c(Cl)c3C2)C[C@]12CCCc1ccccc12 [Compound 98, 2-[3-chloro-5-[(7S)-2-[[(2R,8S)-2-fluoro-1,2,3,5,6,7-hexahydropyrrolizin-8-yl]methoxy]-6-methyl-spiro[5,8-dihydropyrido[4,3-d]pyrimidine-7,1′-tetralin]-4-yl]-4,6,7,8-tetrahydropyrazolo[1,5-a][1,4]diazepin-2-yl]acetonitrile] | – | < 0.01 µM | > 100 µM
13 | CCN1Cc2c(nc(OC[C@@]34CCCN3C[C@H](F)C4)nc2N2CCCn3nc(C(=O)N(C)C)c(Cl)c3C2)C[C@]12CCCc1ccccc12 [Compound 100, 3-chloro-5-[(7S)-6-ethyl-2-[[(2R,8S)-2-fluoro-1,2,3,5,6,7-hexahydropyrrolizin-8-yl]methoxy]spiro[5,8-dihydropyrido[4,3-d]pyrimidine-7,1′-tetralin]-4-yl]-N,N-dimethyl-4,6,7,8-tetrahydropyrazolo[1,5-a][1,4]diazepine-2-carboxamide] | – | 0.01 to 0.1 µM | > 100 µM
14 | [5-[(7S)-4′-chloro-2-[[(2R,8S)-2-fluoro-1,2,3,5,6,7-hexahydropyrrolizin-8-yl]methoxy]spiro[5,8-dihydropyrano[4,3-d]pyrimidine-7,1′-indane]-4-yl]-4,6,7,8-tetrahydropyrazolo[1,5-a][1,4]diazepin-2-yl]-pyrrolidin-1-yl-methanone [Compound 34] | – | < 0.01 µM | > 100 µM
